Columns and labels:
Assay type in all cases: cell-based
[1] = tested on: tunneling nanotubes (TNTs) in 50:50 DS/MDR MDA-MB-231 cells; experiment: Number of TNTs/cm^2 counted in 50:50 DS/MDR co-culture after treatment; details: 50:50 DS/MDR ratio of MDA-MB-231 cells, n=25, FIG. 4C
DS TNBC cells = experiment: Wound healing assay (cell migration), drug sensitive cells; details: AS-LNP at 10 PM and 30 PM, n=10, FIG. 6A
From the text: (§1) SNARE proteins mediate EV release but also mediate the fusion of TNTs with recipient cells.

MDR TNBC cells = experiment: Wound healing assay (cell migration), MDR cells; details: AS-LNP at 10 PM and 30 PM, n=10, FIG. 6B
From the text: as §1

CN(C)C(=N)N=C(N)N [metformin]
number of TNTs/cm^2 [1]: more effective in reducing the number of TNTs

C/C1=C\[C@@H](C)C/C=C/[C@H]2[C@@H]3O[C@]3(C)[C@@H](C)[C@H]3[C@H](Cc4c[nH]c5ccccc45)NC(=O)[C@]32C(=O)/C=C/C(=O)[C@@H]1O [CA, chaetoglobosin A]
number of TNTs/cm^2 [1]: significantly reduced the number of TNTs

O=C(/C=C/c1ccc(/C=C/C(=O)Nc2ccc(C3=NCCN3)cc2)cc1)Nc1ccc(C2=NCCN2)cc1 [GW4869]
cell migration in wound healing assay (DS TNBC cells): did not decrease cell migration
cell migration in wound healing assay (MDR TNBC cells): did not decrease cell migration
